Structures can show the parent of a compound that is named as a salt.
Tests used:
[1] = Solubility of compound (I) tosylate in various dissolution media with time; format: physicochemical; conditions: thermodynamic from solid, 37° C.
From the text: Therefore compound (I) tosylate is expected to improve the aqueous solubility of compound (I) for a sufficient period of time to allow enhanced absorption in man. Without wishing to be limited by theory, the enhanced solubility of compound (I) tosylate may arise from a combination of the inherent higher solubility of the compound (I) tosylate, and a continued high solubility when the compound (I) precipitates from solution as amorphous material, in aqueous media. The observed improved solubility may therefore reflect both the solubility of the amorphous material and the solubility of the compound (I) tosylate, which will be present in-vivo in varying ratios following oral administration of compound (I) tosylate as a result of the kinetic balance between dissolution and precipitation of compound (I). […] In Table 2, the columns marked “modification” refer to the form of the solid present in the dissolution medium at the relevant time point indicated. The data in Table 2 indicate that the solubility remains high for at least 3 hours, particularly at low pH, representative of the pH found in the stomach.
Solubility was determined in 0.1 M HCl at pH 1.0, 0.2 M phosphate buffer at pH 3, 0.2 M phosphate buffer at pH 5.0, 0.2 M phosphate buffer at pH 6.5 and 0.2 M phosphate buffer at pH 8.
Typically about 4 mg of test sample was added to a 1 ml Scantec glass tube. The experiment was started on addition of 800 μl of preheated test media using an automated Tecon robot system (Genesis Freedom 150). Incubation was at 37° C., in a thermoblock, shaken at 600 rpm. Samples were withdrawn after 1 hour, 3 hours and 24 h, triplicate samples for each media. The supernatant liquid was withdrawn from samples and filtered using a Whatman GF/B filter and diluted prior to analysis by LC (Agilent 1100 series with X Terra MSC18 column). The remaining solid in the sample tubes was characterised using XRPD.

[2] = Humidity sorption by gravimetrical vapour sorption (GVS); format: physicochemical; conditions: at 80% relative humidity (RH)
Experimental: As such, compound (I) tosylate Form A is right at the border between slightly hygroscopic and non hygroscopic, according to the criteria defined in the European Pharmacopoeia.
The gravimetric responses of test samples to changes in humidity were investigated using a SGA 100 (VTI Corporation) Gravimetrical Vapour Sorption (GVS) instrument with the following features:
Dry to 90% RH and back, in steps of, for example, 10% RH.
Equilibrium condition: <0.01 weight-% per 10 minutes (<0.001 weight-%/min)
Approximately 5 mg of the test sample was placed in the cup and evaluated.

[3] = Solid state stability study (LC and XRPD); format: physicochemical
Experimental: The solid state stability of compound (I) tosylate Form A was studied under four sets of conditions: at 25° C./desiccated; at 25° C./60% relative humidity (RH); 40° C./75% RH and 60° C./75% RH. Samples were examined (LC and XRPD) after 4, 8 and 12 weeks and chemical and physical stability were evaluated. […] It was concluded that compound (I) tosylate Form A has excellent and advantageous chemical and physical stability in the solid state under pharmaceutically relevant storage conditions.

[4] = Oral bioavailability study in the dog; format: in vivo, Beagle dogs; conditions: Beagle, plasma
Experimental: Beagle dogs (three dogs for each formulation) were administered orally with Compound (I) tosylate form A (dose equivalent to 1.0 mg/kg compound (I) free base) in a gelatine capsule or an aqueous suspension of 0.8 mg/kg crystalline compound (I) free base suspended in water together with 1.2% w/w Avicel and 0.1% w/w Polysorbate 80.
Accordingly the bioavailability of compound (I) tosylate Form A was about 3 times higher than the free base.

[5] = Dissolution in 900 ml of 0.1 M HCl (pH 1), USP apparatus 2; format: physicochemical; conditions: 79 mg (corresponding to 60 mg free base) alone in a capsule; 900 ml 0.1 M HCl, 75 rpm, 37° C.
Experimental: […] The dissolution was measured in 900 ml of 0.1 M HCl (pH 1) and using a USP dissolution apparatus 2 (paddle) at 75 rpm and 37° C. in a fully automated system, Zymark Multidose G3.
The dissolution profile of tablet formulations A and B in Table 7 were determined in 900 ml of 0.1 M HCl (pH 1) and using a USP dissolution apparatus 2 (paddle) at 75 rpm and 37° C. in a fully automated system, Zymark Multidose G3.

[6] = Solubility of salts of compound (I) after 1 hour in 0.1 M HCl (Zymark Multidose G3, UV 337 nm); conditions: after 1 hour in 900 ml of 0.1 M HCl, 75 rpm, 37° C.
Experimental: The solubility (mg/ml) shown in Table 1 was measured after 1 hour in 900 ml of 0.1 M HCl and at 75 rpm and 37° C. using a Zymark Multidose G3 system. Analysis was made by UV spectrophotometer with a detection wavelength of 337 nm.

[7] = target: T1, Human Neutrophil Elastase (HNE) (Homo sapiens, UniProt P08246); assay: Human Neutrophil Elastase Quenched-FRET assay; format: biochemical; conditions: free base dissolved in DMSO; n=26; read-out: IC50 for inhibition of human neutrophil elastase activity
T1 construct: Human Neutrophil Elastase (HNE) purified from serum (Calbiochem art. 324681); purchased Calbiochem 324681; host or cells: purified from serum (so in the source); natural human source, not recombinant
T1 sequence (P08246 30-247 limits assumed): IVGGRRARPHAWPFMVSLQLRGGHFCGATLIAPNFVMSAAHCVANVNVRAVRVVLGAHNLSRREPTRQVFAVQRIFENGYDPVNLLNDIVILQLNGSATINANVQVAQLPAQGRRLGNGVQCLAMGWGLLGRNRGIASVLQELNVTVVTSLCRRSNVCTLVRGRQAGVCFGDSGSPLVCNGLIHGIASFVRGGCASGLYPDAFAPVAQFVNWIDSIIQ
Experimental: The assay uses Human Neutrophil Elastase (HNE) purified from serum (Calbiochem art. 324681; Ref. Baugh, R. J. et al., 1976, Biochemistry. 15, 836-841). […] The protease substrate used was Elastase Substrate V Fluorogenic, MeOSuc-AAPV-AMC (Calbiochem art. 324740; Ref. Castillo, M. J. et al., 1979, Anal. Biochem. 99, 53-64). The substrate was stored in dimethyl sulfoxide (DMSO) at −20° C. The assay additions were as follows: Test compounds and controls were added to black 96-well flat-bottom plates (Greiner 655076), 1.0 μL in 100% DMSO, followed by 30 μL HNE in assay buffer with 0.01% Triton (trade mark) X-100 detergent. The assay buffer constitution was: 100 mM Tris(hydroxymethyl)aminomethane (TRIS) (pH 7.5) and 500 mM NaCl. The enzyme and the compounds were incubated at room temperature for 15 minutes. Then 30 μl substrate in assay buffer was added. The assay was incubated for 30 minutes at room temperature. The concentrations of HNE enzyme and substrate during the incubation were 1.7 nM and 100 μM, respectively. The assay was then stopped by adding 60 μl stop solution (140 mM acetic acid, 200 mM sodium monochloroacetate, 60 mM sodium acetate, pH 4.3). Fluorescence was measured on a Wallac 1420 Victor 2 instrument at settings: Excitation 380 nm, Emission 460 nm. IC50 values were determined using Xlfit curve fitting using model 205.

`Cc1c(-c2ccnn2C)cc(C(=O)NCc2ccc(S(C)(=O)=O)cn2)c(=O)n1-c1cccc(C(F)(F)F)c1` [compound (I) tosylate Form A, 6-methyl-5-(1-methyl-1H-pyrazol-5-yl)-N-{[5-(methylsulfonyl)pyridin-2-yl]methyl}-2-oxo-1-[3-(trifluoromethyl)phenyl]-1,2-dihydropyridine-3-carboxamide 4-methylbenzenesulfonate] gave a solubility at 1 h ([1]; aqueous buffer, 0.2 M Phosphate buffer pH 3.0, 1 h) of 493 ± 97 µM, a solubility at 3 h ([1]; aqueous buffer, 0.2 M Phosphate buffer pH 3.0, 3 h) of 492 ± 115 µM and a solubility at 24 h ([1]; aqueous buffer, 0.2 M Phosphate buffer pH 3.0, 24 h) of 11.8 ± 0.9 µM. For the same molecule, the solubility at 1 h ([1]; aqueous buffer, 0.2 M Phosphate buffer pH 5.0, 1 h) was 490 ± 42 µM, the solubility at 3 h ([1]; aqueous buffer, 0.2 M Phosphate buffer pH 5.0, 3 h) was 460 ± 54 µM and the solubility at 24 h ([1]; aqueous buffer, 0.2 M Phosphate buffer pH 5.0, 24 h) was 12.2 ± 0.6 µM. The solubility at 1 h ([1]; aqueous buffer, 0.2 M Phosphate buffer pH 6.5, 1 h) was 416 ± 48 µM, the solubility at 3 h ([1]; aqueous buffer, 0.2 M Phosphate buffer pH 6.5, 3 h) was 363 ± 86 µM and the solubility at 24 h ([1]; aqueous buffer, 0.2 M Phosphate buffer pH 6.5, 24 h) was 10.1 ± 0.8 µM. For the same molecule, the solubility at 1 h ([1]; aqueous buffer, 0.2 M Phosphate buffer pH 8, 1 h) was 412 ± 29 µM, the solubility at 3 h ([1]; aqueous buffer, 0.2 M Phosphate buffer pH 8, 3 h) was 240 ± 35 µM and the solubility at 24 h ([1]; aqueous buffer, 0.2 M Phosphate buffer pH 8, 24 h) was 8.4 ± 0.7 µM. For the same molecule, the solubility at 1 h ([1]; simulated gastric fluid, 0.1 M HCl pH 1.0, 1 h) was 1530 ± 129 µM, the solubility at 3 h ([1]; simulated gastric fluid, 0.1 M HCl pH 1.0, 3 h) was 1100 ± 145 µM and the solubility at 24 h ([1]; simulated gastric fluid, 0.1 M HCl pH 1.0, 24 h) was 58.4 ± 1.2 µM. The humidity uptake [2] was “around 0.2%”, the “solid state chemical and physical stability” value ([3]; 25° C./desiccated, 25° C./60% RH, 40° C./75% RH, after 4, 8 and 12 weeks) was “no significant chemical or physical changes were observed” and the “solid state chemical and physical stability” value ([3]; stressed 60° C./75% RH condition, 4, 8 and 12 weeks) was “some potential chemical degradation”. The bioavailability ([4]; gelatine capsule, dose equivalent to 1.0 mg/kg compound (I) free base) was about 38%, the “dissolved within 30 minutes” value [5] was under 65% and the “Solubility” value ([6]; 4-methylbenzenesulfonate) was 1200 µg/mL.
With `Cc1c(-c2ccnn2C)cc(C(=O)NCc2ccc(S(C)(=O)=O)cn2)c(=O)n1-c1cccc(C(F)(F)F)c1` [compound (I), 6-methyl-5-(1-methyl-1H-pyrazol-5-yl)-N-{[5-(methylsulfonyl)pyridin-2-yl]methyl}-2-oxo-1-[3-(trifluoromethyl)phenyl]-1,2-dihydropyridine-3-carboxamide] the bioavailability ([4]; aqueous suspension of 0.8 mg/kg crystalline free base (1.2% w/w Avicel, 0.1% w/w Polysorbate 80)) was about 12%, the IC50 [7] was 0.012 µM and the “Solubility” value ([6]; listed as Compound (I) free base) was 40 µg/mL.
